Laboratory results from article PMC10626578, “Designed switch from covalent to non-covalent inhibitors of carboxylesterase Notum activity” (European Journal of Medicinal Chemistry, 2023).
Converted amounts (≈) assume the structure as drawn. “And” between values parts separate entries of the source, which are not always exact repeats. Identical values can stand only once. Like-named read-outs stand apart in the source and are kept apart here.

What was measured:
[1] = biological target: T1, Notum (core, 81–451C330S) (Homo sapiens, UniProt Q6P988, C330S); experiment: Notum-OPTS biochemical assay, Notum (81–451C330S); conditions: for fold increase in Notum inhibition over 3a: vs 3a, more potent
T1 construct: high-throughput biochemical assay with Notum (81–451C330S) and OPTS as a synthetic fluorescent substrate; made in house
T1 sequence (Q6P988 81-451 C330S): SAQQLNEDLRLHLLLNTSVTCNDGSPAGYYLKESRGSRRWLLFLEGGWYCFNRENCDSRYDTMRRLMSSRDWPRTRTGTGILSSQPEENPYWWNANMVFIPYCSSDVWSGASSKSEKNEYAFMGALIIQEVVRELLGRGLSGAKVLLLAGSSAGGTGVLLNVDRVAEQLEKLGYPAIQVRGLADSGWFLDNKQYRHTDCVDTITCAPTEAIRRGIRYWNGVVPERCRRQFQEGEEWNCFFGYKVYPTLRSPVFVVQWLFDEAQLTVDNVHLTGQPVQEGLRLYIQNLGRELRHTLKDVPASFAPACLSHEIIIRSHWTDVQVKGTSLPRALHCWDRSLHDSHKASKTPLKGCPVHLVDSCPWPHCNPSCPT
Method: Notum inhibitors 3–5 (Table 1, Table 2, Table 3, Table 4) were either purchased or prepared using established synthetic methods from readily available starting materials (Scheme 1). Where necessary, the synthesis of many of these amines (e.g. 6) have been reported previously and full details of their preparation have been included in the Experimental Section. Notum inhibition activity was determined using the standard Notum-OPTS biochemical assay using IC50 values. These values were used to compare relative activities with covalent inhibitors under carefully regulated assay conditions. […] Selected inhibitors were screened for inhibition of Notum activity in a TCF/LEF Reporter (Luciferase) cell line with exogenous WNT3a and Notum, and soaked into Notum crystals to determine their binding modes and evidence of MoA.
(§1) Methods have been described in detail.

[2] = Stability in human liver microsomes; type: in vitro ADME; conditions: for half-life: human, read-out: HLM Stability t1/2
Method: (§2) Selected compounds were routinely screened for aqueous solubility in PBS (pH 7.4), transit performance in MDCK-MDR1 cell lines for permeability, and metabolic stability in MLM and HLM as a measure of clearance. The main metabolites and routes of metabolism of 4y were determined in MLM. Assay protocols and additional data are presented in the Supplementary Material (Tables S1–S7). ADME studies reported in this work were performed by WuXi AppTec (Shanghai, China).
(§3) Representative assay protocols have been described in detail. ^1,2

[3] = Stability in mouse plasma; type: in vitro ADME
Text: as §3

[4] = tested on: TCF/LEF Reporter (Luciferase) cell line; experiment: TCF/LEF reporter (Luciferase) assay with WNT3A in the absence of Notum; type: cell-based; conditions: up to 10 μM
Method: (§4) Early leads 4v, 4w and 4y were then evaluated in additional pharmacology and ADME screens (Table 3). […] Screening 4w and 4y in the biochemical assay using full length Notum and OPTS confirmed potent inhibition of Notum activity.
Figure S4D. Notum TCF/LEF reporter (Luciferase) data with WNT3A (200 ng/mL) in the absence of Notum. Representative response-concentration curves are for 4w (2 of 6 shown) from a larger data set for compounds 3-5. Examples are from different screening runs.

[5] = Distribution coefficient LogD7.4, shake flask method; type: physicochemical; conditions: pH 7.4; Table 3
Method: Molecular properties (MW, clogP) were calculated with ChemDraw Professional v16.0.1.4(77). Distribution coefficients (LogD7.4) were measured using the shake flask method.
Representative assay protocols have been described in detail.^1,^2

[6] = Aqueous solubility in PBS (pH 7.4); type: physicochemical; conditions: for solubility thermodynamic: PBS, Table S2, pH 7.4, n = 2, * below lower limit of quantification, read-out: Thermodynamic Solubility @ RT; for solubility: Table 3, PBS pH 7.4
Method: as §2, §3

Notum = biological target: T2, Notum (Homo sapiens, UniProt Q6P988); experiment: TCF/LEF Reporter (Luciferase) cell line with exogenous WNT3a and Notum; type: cell-based; conditions: for restoration of Wnt signalling in the presence of Notum: concentration-response curves up to 10 μM
T2 construct: host or cells: TCF/LEF Reporter (Luciferase) cell line; Notum added exogenously
T2 sequence (Q6P988 20-496): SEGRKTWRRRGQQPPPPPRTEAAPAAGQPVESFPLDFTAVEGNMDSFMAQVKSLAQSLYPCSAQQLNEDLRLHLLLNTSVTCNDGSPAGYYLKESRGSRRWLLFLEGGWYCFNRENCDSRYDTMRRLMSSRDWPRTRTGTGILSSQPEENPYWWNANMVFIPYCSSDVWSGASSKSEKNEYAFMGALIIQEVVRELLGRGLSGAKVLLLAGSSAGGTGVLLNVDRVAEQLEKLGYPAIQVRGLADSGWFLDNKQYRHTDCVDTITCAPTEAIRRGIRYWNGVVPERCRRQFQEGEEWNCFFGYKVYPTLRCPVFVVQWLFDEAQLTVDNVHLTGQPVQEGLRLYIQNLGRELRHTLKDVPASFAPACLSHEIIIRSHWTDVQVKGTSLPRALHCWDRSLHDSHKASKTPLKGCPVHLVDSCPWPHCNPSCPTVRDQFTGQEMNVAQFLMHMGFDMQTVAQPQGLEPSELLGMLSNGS
Method: Notum inhibitors 3–5 (Table 1, Table 2, Table 3, Table 4) were either purchased or prepared using established synthetic methods from readily available starting materials (Scheme 1). Where necessary, the synthesis of many of these amines (e.g. 6) have been reported previously and full details of their preparation have been included in the Experimental Section. Notum inhibition activity was determined using the standard Notum-OPTS biochemical assay using IC50 values. These values were used to compare relative activities with covalent inhibitors under carefully regulated assay conditions. Confirmed inhibitors were routinely screened in in vitro ADME assays. Selected inhibitors were screened for inhibition of Notum activity in a TCF/LEF Reporter (Luciferase) cell line with exogenous WNT3a and Notum, and soaked into Notum crystals to determine their binding modes and evidence of MoA. […]
as §1

[7] = tested on: MDR1-MDCKII cell monolayer; experiment: Permeability using MDR1-MDCKII cell monolayer; type: in vitro ADME; conditions: Table 3; efflux ratio
Method: as §2, §3

[8] = Permeability using MDR1-MDCKII cell monolayer; type: in vitro ADME; conditions: dog, MDCK-MDR1, Table S3, mean n=2
Method: as §2, §3

MDR1 = experiment: Permeability using MDR1-MDCKII cell monolayer; type: in vitro ADME; conditions: dog
Method: as §2, §3

Notum (full length) = biological target: T3, Notum (full length) (Homo sapiens, UniProt Q6P988); experiment: Notum-OPTS biochemical assay, full length Notum
T3 construct: Screening 4w and 4y in the biochemical assay using full length Notum and OPTS
T3 sequence (Q6P988 20-496): T2 sequence (Q6P988 20-496)
Method: as §4, §1

[9] = Stability in mouse liver microsomes; type: in vitro ADME; conditions: for microsomal CLint at 1 h: Table 3, read-out: MLM Clint
Method: as §2, §3

[10] = Metabolite identification of 4y in mouse liver microsomes (LC-UV-MS); type: in vitro ADME; conditions: 4y at 10 µM incubated with MLM at 37 °C for 60 min; share of total drug-related components
Method: The test compound 4y at 10 µM was incubated with mouse liver microsomes (MLM) at 37 °C for 60 min. The positive control, 7-ethoxycoumarin (7-EC) at 10 µM, was run concurrently to assess Phase I metabolic activities in liver microsomes. […] After incubation, the samples were analysed by LC-UV-MS. The structures of the metabolites were proposed based on the interpretation of their MS and MS^2 data.
The relative abundance of 4y and each of the putative metabolites were calculated using peak area (peak area under the UV spectrum at 250-280 nm) of individual metabolite relative to the total area of all detected drug-related components (Table S6).

[11] = Table 2, mean ± s.d. of n = 4–12, >10 = 20–50% inhibition @ 10 μM, read-out: Notum IC50
[12] = Notum (core, 81–451C330S), read-out: OPTS, IC50
[13] = Notum (core, 81–451C330S), restoration of Wnt signalling, read-out: TCF-LEF, EC50
[14] = Notum (full length), read-out: OPTS, IC50
[15] = mouse, read-out: MLM Stability t1/2
[16] = Table 4, mean ± s.d. of n = 4–8, >10 = 20–50% inhibition @ 10 μM, read-out: Notum IC50

SMILES | IC50 [1, 11] [nM] | HLM Stability Cli [2] [µL/min/mg protein] | half-life [2] [min] | IC50 [1, 12] [nM] | assay interference or cell toxicity in the absence of Notum [4] | solubility thermodynamic [6] [µg/mL] | solubility [6] [µg/mL] | EC50 (Notum; [13]) [nM] | restoration of Wnt signalling in the presence of Notum (Notum) | MLM Stability Cli [9] [µL/min/mg protein] | microsomal CLint at 1 h [9] [µL/min/mg] | half-life [9, 15] [min] | also measured
CC(=O)N1CCc2c(Cl)cccc21 [Compound 4g, 1-(4-Chloroindolin-1-yl)ethan-1-one] | 40 ± 24 | 640 | 2.2 |  |  |  |  |  |  |  |  |  | fold increase in Notum inhibition over 3a [1]: 10 fold
CC(=O)N1CCc2c1ccc(Cl)c2Cl [Compound 4w, 1-(4,5-Dichloroindolin-1-yl)ethan-1-one] | 2.5 ± 0.6 | 138 | 10 | 2.5 ± 0.6 | not by assay interference or cell toxicity | < 0.36 | 0.4 (≈ 1.74 µM) | 22 ± 14 | restored Wnt signalling | 1150 | 1200 | 1.2 | IC50 ([1]; Figure S4A, Notum (81-451 C330S) OPTS, 4 of 11 curves shown, read-out: IC50, single concentration-response curve): 2.8 nM and 3.7 nM and 2.3 nM and 3.1 nM; LE ([1]; ligand efficiency from Notum OPTS IC50): 0.85; LLE ([1]; lipophilic ligand efficiency from Notum OPTS IC50 and clogP): 5.9; half-life ([3]; Table S5, read-out: Mouse plasma Stability t1/2): > 280 min; half-life ([3]; read-out: mouse plasma stability t½): > 240 min; logD [5]: 3.1; EC50 (Notum; Figure S4C, WNT3A (200 ng/mL), 6 of 6 curves shown, read-out: EC50, single concentration-response curve): 5.5 nM and 4.3 nM and 15.2 nM and 39 nM and 29.1 nM and 36.8 nM; MDCK-MDR1 ER [7]: 0.60; recovery ([8]; read-out: A to B % Recovery): 75%; recovery ([8]; read-out: B to A % Recovery): 81%; Papp (MDR1; MDCK-MDR1, Table 3, apical to basal, read-out: MDCK-MDR1 AB Papp): 35 ×10⁻⁶ cm/s; Papp (MDR1; MDCK-MDR1, Table 3, basal to apical, read-out: MDCK-MDR1 BA Papp): 21 ×10⁻⁶ cm/s; efflux ratio (MDR1; MDCK-MDR1, Table S3, mean n=2): 0.59; Papp (MDR1; MDCK-MDR1, Table S3, mean n=2, read-out: Apical to Basal Papp): 35.5 ×10⁻⁶ cm/s; Papp (MDR1; MDCK-MDR1, Table S3, mean n=2, read-out: Basal to Apical Papp): 21.1 ×10⁻⁶ cm/s; IC50 (Notum (full length); Figure S4B, Notum (full length) OPTS, 3 of 3 curves shown, read-out: IC50, single concentration-response curve): 5.3 nM and 4.1 nM and 5.4 nM; IC50 (Notum (full length); [14]): 4.9 ± 0.6 nM; microsomal CLint at 1 h ([2]; Table 3, read-out: HLM Clint): 140 µL/min/mg
O=C1CCC2Cc3ccccc3N12 (stereo not drawn) [Compound 5f, 1,2,9,9a-Tetrahydro-3H-pyrrolo[1,2-a]indol-3-one] |  |  |  |  |  | 577 (≈ 3330 µM) |  |  |  | 73 |  | 19 | IC50 [1, 16]: 180 ± 20 nM; fold increase in Notum inhibition over 3a [1]: 2 fold; half-life at 1 h [9, 15]: 18 min
CC(=O)N1CC2(CC2)c2c(Cl)cccc21 [Compound 4y, 1-(4′-Chlorospiro[cyclopropane-1,3′-indolin]-1′-yl)ethan-1-one] | 3.5 ± 0.6 |  |  | 3.5 ± 0.6 | not by assay interference or cell toxicity | 0.186 (≈ 0.839 µM) | 0.2 (≈ 0.902 µM) | 35 ± 13 | restored Wnt signalling | 895 | 900 | 1.5 | IC50 (Notum (full length); [14]): 11 ± 1.4 nM; Relative Abundance (UV peak area %Total) [10]: 30% and 30.48%
CC(=O)N1CCc2c1cccc2C(F)(F)F [Compound 4o, 1-(4-(Trifluoromethyl)indolin-1-yl)ethan-1-one] | 30 ± 4 | 900 | 1.5 |  |  |  |  |  |  |  |  |  | 
CC(=O)N1CCc2c1ccc(Cl)c2C(F)(F)F [Compound 4v, 1-(5-Chloro-4-(trifluoromethyl)indolin-1-yl)ethan-1-one] | 1.3 ± 0.3 |  |  | 1.3 ± 0.3 | not by assay interference or cell toxicity | 1.55 (≈ 5.88 µM) | 1.6 (≈ 6.07 µM) | 28 ± 20 | restored Wnt signalling | 650 | 650 | 2.1 | 
CC(=O)n1ccc2c(Cl)c(Cl)ccc21 [Compound 5d, 1-(4,5-Dichloro-1H-indol-1-yl)ethan-1-one] |  |  |  |  |  | < 0.36 |  |  |  | 1320 |  | 1.1 | IC50 [1, 16]: 31 ± 4 nM
